# Test results reported in PubChem BioAssay AID1259407 (Chemical Carcinogenesis Research Information System (CCRIS), 2018).
# Activity calls are given as the source filed them. How the calls were made is not given here.
# Tested on: CCRIS mutagenicity, Ames/micronucleus/aberration tests
# Experiment: CCRIS mutagenicity studies
# [1] = Test System: AMES SALMONELLA TYPHIMURIUM, Strain/Indicator: TA98, Metabolic Activation: NONE, Method: STANDARD PLATE
# [2] = Test System: AMES SALMONELLA TYPHIMURIUM, Strain/Indicator: TA98, Metabolic Activation: RAT, LIVER, S-9, AROCLOR 1254, Method: STANDARD PLATE
# [3] = Test System: AMES SALMONELLA TYPHIMURIUM, Strain/Indicator: TA100, Metabolic Activation: NONE, Method: STANDARD PLATE
# [4] = Test System: AMES SALMONELLA TYPHIMURIUM, Strain/Indicator: TA100, Metabolic Activation: RAT, LIVER, S-9, AROCLOR 1254, Method: STANDARD PLATE
smiles,measurement,setting,value
COCC(=O)O,mutagenic call,"Test System: AMES SALMONELLA TYPHIMURIUM, Strain/Indicator: TA97A, Metabolic Activation: NONE, Method: STANDARD PLATE",inactive; negative
same,mutagenic call,"Test System: AMES SALMONELLA TYPHIMURIUM, Strain/Indicator: TA97A, Metabolic Activation: RAT, LIVER, S-9, AROCLOR 1254, Method: STANDARD PLATE",inactive; negative
same,mutagenic call,[1],inactive; negative
same,mutagenic call,[2],inactive; negative
same,mutagenic call,[3],inactive; negative
same,mutagenic call,[4],inactive; negative
same,mutagenic call,"Test System: AMES SALMONELLA TYPHIMURIUM, Strain/Indicator: TA102, Metabolic Activation: NONE, Method: STANDARD PLATE",inactive; negative
same,mutagenic call,"Test System: AMES SALMONELLA TYPHIMURIUM, Strain/Indicator: TA102, Metabolic Activation: RAT, LIVER, S-9, AROCLOR 1254, Method: STANDARD PLATE",inactive; negative
same,mutagenic call,"Test System: CHINESE HAMSTER OVARY, Strain/Indicator: CHO AS52 (GPT)/6-THIOGUANINE, Metabolic Activation: NONE",inactive; negative
same,mutagenic call,"Test System: CHINESE HAMSTER OVARY, Strain/Indicator: CHO-K1-BH4 (HGPRT)/6-THIOGUANINE, Metabolic Activation: NONE",inactive; negative
same,mutagenic call,"Test System: CHINESE HAMSTER OVARY, Strain/Indicator: CHO-K1-BH4 (HGPRT)/6-THIOGUANINE, Metabolic Activation: RAT, LIVER, S-9, AROCLOR 1254",inactive; negative
O=[N+]([O-])c1ccccc1SS/C(Cl)=C(\Cl)C(F)(F)F,mutagenic call,"Test System: AMES SALMONELLA TYPHIMURIUM, Strain/Indicator: TA100(DNP6), Metabolic Activation: NONE, Method: PREINCUBATION",active; positive
same,mutagenic call,"Test System: AMES SALMONELLA TYPHIMURIUM, Strain/Indicator: TA100(NR), Metabolic Activation: NONE, Method: PREINCUBATION",active; positive
CC(=O)OC(C)=O,mutagenic call,"Test System: AMES SALMONELLA TYPHIMURIUM, Strain/Indicator: TA98, Metabolic Activation: HAMSTER, LIVER, S-9, AROCLOR 1254, Method: STANDARD PLATE",inactive; negative
same,mutagenic call,"Test System: AMES SALMONELLA TYPHIMURIUM, Strain/Indicator: TA98, Metabolic Activation: NONE, Method: PREINCUBATION",inactive; negative
same,mutagenic call,[1],inactive; negative
same,mutagenic call,[2],inactive; negative
same,mutagenic call,"Test System: AMES SALMONELLA TYPHIMURIUM, Strain/Indicator: TA98, Metabolic Activation: RAT, LIVER, S-9, SODIUM PHENOBARBITAL AND 5,6-BENZOFLAVONE, Method: PREINCUBATION",inactive; negative
same,mutagenic call,"Test System: AMES SALMONELLA TYPHIMURIUM, Strain/Indicator: TA100, Metabolic Activation: HAMSTER, LIVER, S-9, AROCLOR 1254, Method: STANDARD PLATE",inactive; negative
same,mutagenic call,"Test System: AMES SALMONELLA TYPHIMURIUM, Strain/Indicator: TA100, Metabolic Activation: NONE, Method: PREINCUBATION",inactive; negative
same,mutagenic call,[3],inactive; negative
same,mutagenic call,[4],inactive; negative
same,mutagenic call,"Test System: AMES SALMONELLA TYPHIMURIUM, Strain/Indicator: TA100, Metabolic Activation: RAT, LIVER, S-9, SODIUM PHENOBARBITAL AND 5,6-BENZOFLAVONE, Method: PREINCUBATION",inactive; negative
same,mutagenic call,"Test System: AMES SALMONELLA TYPHIMURIUM, Strain/Indicator: TA102, Metabolic Activation: NONE, Method: PREINCUBATION",inactive; negative
same,mutagenic call,"Test System: AMES SALMONELLA TYPHIMURIUM, Strain/Indicator: TA102, Metabolic Activation: RAT, LIVER, S-9, SODIUM PHENOBARBITAL AND 5,6-BENZOFLAVONE, Method: PREINCUBATION",inactive; negative
same,mutagenic call,"Test System: AMES SALMONELLA TYPHIMURIUM, Strain/Indicator: TA104, Metabolic Activation: NONE, Method: PREINCUBATION",inactive; negative
same,mutagenic call,"Test System: AMES SALMONELLA TYPHIMURIUM, Strain/Indicator: TA104, Metabolic Activation: RAT, LIVER, S-9, SODIUM PHENOBARBITAL AND 5,6-BENZOFLAVONE, Method: PREINCUBATION",inactive; negative
same,mutagenic call,"Test System: AMES SALMONELLA TYPHIMURIUM, Strain/Indicator: TA1535, Metabolic Activation: HAMSTER, LIVER, S-9, AROCLOR 1254, Method: STANDARD PLATE",inactive; negative
same,mutagenic call,"Test System: AMES SALMONELLA TYPHIMURIUM, Strain/Indicator: TA1535, Metabolic Activation: NONE, Method: PREINCUBATION",inactive; negative
same,mutagenic call,"Test System: AMES SALMONELLA TYPHIMURIUM, Strain/Indicator: TA1535, Metabolic Activation: NONE, Method: STANDARD PLATE",inactive; negative
same,mutagenic call,"Test System: AMES SALMONELLA TYPHIMURIUM, Strain/Indicator: TA1535, Metabolic Activation: RAT, LIVER, S-9, AROCLOR 1254, Method: STANDARD PLATE",inactive; negative
same,mutagenic call,"Test System: AMES SALMONELLA TYPHIMURIUM, Strain/Indicator: TA1535, Metabolic Activation: RAT, LIVER, S-9, SODIUM PHENOBARBITAL AND 5,6-BENZOFLAVONE, Method: PREINCUBATION",inactive; negative
same,mutagenic call,"Test System: AMES SALMONELLA TYPHIMURIUM, Strain/Indicator: TA1537, Metabolic Activation: HAMSTER, LIVER, S-9, AROCLOR 1254, Method: STANDARD PLATE",inactive; negative
same,mutagenic call,"Test System: AMES SALMONELLA TYPHIMURIUM, Strain/Indicator: TA1537, Metabolic Activation: NONE, Method: PREINCUBATION",inactive; negative
same,mutagenic call,"Test System: AMES SALMONELLA TYPHIMURIUM, Strain/Indicator: TA1537, Metabolic Activation: NONE, Method: STANDARD PLATE",inactive; negative
same,mutagenic call,"Test System: AMES SALMONELLA TYPHIMURIUM, Strain/Indicator: TA1537, Metabolic Activation: RAT, LIVER, S-9, AROCLOR 1254, Method: STANDARD PLATE",inactive; negative
same,mutagenic call,"Test System: AMES SALMONELLA TYPHIMURIUM, Strain/Indicator: TA1537, Metabolic Activation: RAT, LIVER, S-9, SODIUM PHENOBARBITAL AND 5,6-BENZOFLAVONE, Method: PREINCUBATION",inactive; negative
same,mutagenic call,"Test System: AMES SALMONELLA TYPHIMURIUM, Strain/Indicator: TA1538, Metabolic Activation: HAMSTER, LIVER, S-9, AROCLOR 1254, Method: STANDARD PLATE",inactive; negative
same,mutagenic call,"Test System: AMES SALMONELLA TYPHIMURIUM, Strain/Indicator: TA1538, Metabolic Activation: NONE, Method: STANDARD PLATE",inactive; negative
same,mutagenic call,"Test System: AMES SALMONELLA TYPHIMURIUM, Strain/Indicator: TA1538, Metabolic Activation: RAT, LIVER, S-9, AROCLOR 1254, Method: STANDARD PLATE",inactive; negative
same,mutagenic call,"Test System: E. COLI, Strain/Indicator: WP2UVRA/PKM101, Metabolic Activation: NONE, Method: PREINCUBATION",inactive; negative
same,mutagenic call,"Test System: E. COLI, Strain/Indicator: WP2UVRA/PKM101, Metabolic Activation: RAT, LIVER, S-9, SODIUM PHENOBARBITAL AND 5,6-BENZOFLAVONE, Method: PREINCUBATION",inactive; negative
same,mutagenic call,"Test System: E. COLI, Strain/Indicator: WP2UVRA, Metabolic Activation: NONE, Method: PREINCUBATION",inactive; negative
same,mutagenic call,"Test System: E. COLI, Strain/Indicator: WP2UVRA, Metabolic Activation: RAT, LIVER, S-9, SODIUM PHENOBARBITAL AND 5,6-BENZOFLAVONE, Method: PREINCUBATION",inactive; negative
same,mutagenic call,"Test System: MOUSE LYMPHOMA, Strain/Indicator: L5178Y (TK+/TK-), Metabolic Activation: NONE, Method: SUSPENSION/PLATE",inactive; negative. reevaluation of results: inconclusive
same,mutagenic call,"Test System: Mouse lymphoma, Strain/Indicator: L5178Y (tk+/tk-), Metabolic Activation: Rat, Liver, S-9, Aroclor 1254, Method: Suspension/plate",inactive; inconclusive (previous evaluation negative)
